Assay results reported in a compilation of properties of binary mixtures (doi:10.1016/j.fluid.2023.113736).

Assay: xn = mol fraction of the nth substance listed
Conditions: 100 kPa, x1 = 0.5

C[N+](CCO)(CCO)CCOCCO.[Cl-] + NC(N)=O
Conditions	viscosity [mPa·s]
283.15 K	45000
288.15 K	23200
293.15 K	12700
298.15 K	7350
303.15 K	4396
308.15 K	2744
313.15 K	1766
318.15 K	1172
323.15 K	794
333.15 K	400
338.15 K	295
